The values that follow come from patent EP1935887A1, “Heterocyclic substituted carbonyl derivatives and their use as dopamine D3 receptor ligands” (Aventis Pharmaceuticals Inc., priority 2001, dated 2002).

SMILES strings stand for the structures. Read-outs that look alike come from different tables or passages of the source.

This assay addresses T1, Cloned Human Dopamine D3 Receptors (Homo sapiens, UniProt P35462).
T1 construct: expressed in transfected cells; membrane homogenate
Kind of assay: [N-Methyl-3H]Spiroperidol binding to cloned human dopamine D3 receptors. A digest of the protocol:
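Membranes from CHO cells stably expressing human D3 receptor, homogenised in 10% DMSO and stored at -80°C. Binding uses [N-methyl-3H]spiroperidol in Tris buffer, pH 7.7.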

Where [1] appears, read: Table 2 part the 10th table, read-out: d3Ki.
[2] abbreviates: Table 2, unit inferred, read-out: d3Ki.

T1 sequence (P35462 whole entry): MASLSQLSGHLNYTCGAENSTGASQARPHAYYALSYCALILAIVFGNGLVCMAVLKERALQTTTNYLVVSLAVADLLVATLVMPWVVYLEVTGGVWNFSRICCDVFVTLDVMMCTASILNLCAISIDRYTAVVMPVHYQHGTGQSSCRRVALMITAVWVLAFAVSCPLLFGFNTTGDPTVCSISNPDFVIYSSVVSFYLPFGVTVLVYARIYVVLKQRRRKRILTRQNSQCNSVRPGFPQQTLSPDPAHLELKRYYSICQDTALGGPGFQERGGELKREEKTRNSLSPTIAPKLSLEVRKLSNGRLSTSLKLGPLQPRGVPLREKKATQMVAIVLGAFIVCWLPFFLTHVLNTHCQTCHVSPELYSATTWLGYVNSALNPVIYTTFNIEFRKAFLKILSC

Consider `CC(C)[C@@H]1CC[C@@H](C)C[C@H]1NC(=O)[C@@H]1C[C@H]1CN1CCN(c2csc3cc(C(F)(F)F)ccc23)CC1` [compound 826891], for which the Ki (read-out: d3Ki) is 263 nM.
Same read-out and setting: to `O=C(N[C@H]1CCCC[C@@H]1O)[C@@H]1C[C@H]1CN1CCN(c2csc3cc(C(F)(F)F)ccc23)CC1` [compound 826892] belongs 25.9 nM; to `CC1CC(NC(=O)[C@@H]2C[C@H]2CN2CCN(c3csc4cc(C(F)(F)F)ccc34)CC2)CC(C)(C)C1` (some centres unmarked) [compound 826893], 20.4 nM; to `CCN(C(=O)[C@@H]1C[C@H]1CN1CCN(c2csc3cc(C(F)(F)F)ccc23)CC1)C1CCCCC1` [compound 826894], 35 nM.
For `O=C([C@@H]1C[C@H]1CN1CCN(c2csc3cc(C(F)(F)F)ccc23)CC1)N(CCO)C1CCCCC1` [compound 826895], for the setting “read-out: d3Ki”, the Ki came out at 48.8 nM.
Consider `CC1(C)CC2CC(C)(CN2C(=O)[C@@H]2C[C@H]2CN2CCN(c3csc4cc(C(F)(F)F)ccc34)CC2)C1` (some centres unmarked) [compound 826896], for which the Ki under setting [1] came out at 89.5 nM.
On to `CCOC(=O)[C@H]1CCCC[C@H]1NC(=O)[C@@H]1C[C@H]1CN1CCN(c2csc3cc(C(F)(F)F)ccc23)CC1` [compound 826897], for which the Ki (read-out: d3Ki) amounted to 128 nM.
The same measure, in the same setting: to `CCOC(=O)[C@H]1CCCC[C@@H]1NC(=O)[C@@H]1C[C@H]1CN1CCN(c2csc3cc(C(F)(F)F)ccc23)CC1` [compound 826898] belongs 50.5 nM.
As to `CCOC(=O)C1CCN(C(=O)[C@@H]2C[C@H]2CN2CCN(c3csc4cc(C(F)(F)F)ccc34)CC2)CC1` [compound 826899], under setting [1], the Ki is 45.5 nM.
As for `O=C([C@@H]1C[C@H]1CN1CCN(c2csc3cc(C(F)(F)F)ccc23)CC1)N1CCC(O)(c2ccc(Cl)cc2)CC1` [compound 826900], the Ki under setting [1] came to 181 nM.
Turning to `O=C1CCN(C(=O)[C@@H]2C[C@H]2CN2CCN(c3csc4cc(C(F)(F)F)ccc34)CC2)CC1` [compound 826901], the Ki (d3Ki, Table 2 part the 10th table) came to 42.4 nM.
Regarding `O=C([C@@H]1C[C@H]1CN1CCN(c2csc3cc(C(F)(F)F)ccc23)CC1)N1CCCC(O)C1` (some centres unmarked) [compound 826902], the Ki under setting [1] is 13.1 nM.
Same read-out and setting: to `O=C([C@@H]1C[C@H]1CN1CCN(c2csc3cc(C(F)(F)F)ccc23)CC1)N1CCC(n2c(=O)[nH]c3ccccc32)CC1` [compound 826903] belongs 7.47 nM.
In the case of `NC(=O)C1CCCN(C(=O)[C@@H]2C[C@H]2CN2CCN(c3csc4cc(C(F)(F)F)ccc34)CC2)C1` (some centres unmarked) [compound 826904], the Ki under setting [1] is 39.4 nM.
Still for that read-out and setting: under `CC1CCCCN1C(=O)[C@@H]1C[C@H]1CN1CCN(c2csc3cc(C(F)(F)F)ccc23)CC1` (some centres unmarked) [compound 826905] stands 14.5 nM; under `CC1CCN(C(=O)[C@@H]2C[C@H]2CN2CCN(c3csc4cc(C(F)(F)F)ccc34)CC2)CC1` [compound 826906], 39.5 nM.
For `CC1CCCN(C(=O)[C@@H]2C[C@H]2CN2CCN(c3csc4cc(C(F)(F)F)ccc34)CC2)C1` (some centres unmarked) [compound 826907], the Ki under setting [1] was found to be 18.8 nM.
`CCN(CC)C(=O)C1CCCN(C(=O)[C@@H]2C[C@H]2CN2CCN(c3csc4cc(C(F)(F)F)ccc34)CC2)C1` (some centres unmarked) [compound 826908]: the Ki under setting [1] stood at 7.06 nM.
The same measure, in the same setting: under `CCOC(=O)C1CCCN(C(=O)[C@@H]2C[C@H]2CN2CCN(c3csc4cc(C(F)(F)F)ccc34)CC2)C1` (some centres unmarked) [compound 826909] stands 28.9 nM; under `O=C([C@@H]1C[C@H]1CN1CCN(c2csc3cc(C(F)(F)F)ccc23)CC1)N1CCC(N2CCCCC2)CC1` [compound 826910], 17.5 nM; under `O=C([C@@H]1C[C@H]1CN1CCN(c2csc3cc(C(F)(F)F)ccc23)CC1)N1CCC(O)(c2ccccc2)CC1` [compound 826911], 93 nM.
The same measure, in the same setting: to `CC1(C)CCCN(C(=O)[C@@H]2C[C@H]2CN2CCN(c3csc4cc(C(F)(F)F)ccc34)CC2)C1` [compound 826912] belongs 58.5 nM; to `CC1CC(C)CN(C(=O)[C@@H]2C[C@H]2CN2CCN(c3csc4cc(C(F)(F)F)ccc34)CC2)C1` (some centres unmarked) [compound 826913], 86.1 nM; to `O=C([C@@H]1C[C@H]1CN1CCN(c2csc3cc(C(F)(F)F)ccc23)CC1)N1CCC(O)C1` (some centres unmarked) [compound 826914], 101 nM.
The same measure, in the same setting: to `O=C([C@@H]1C[C@H]1CN1CCN(c2csc3cc(C(F)(F)F)ccc23)CC1)N1CCC[C@H]1CNc1ccccc1` [compound 826916] belongs 157 nM.
`COC[C@@H]1CCCN1C(=O)[C@@H]1C[C@H]1CN1CCN(c2csc3cc(C(F)(F)F)ccc23)CC1` [compound 826917]: the Ki under setting [1] was 196 nM.
Still for that read-out and setting: under `CC1CCCN1C(=O)[C@@H]1C[C@H]1CN1CCN(c2csc3cc(C(F)(F)F)ccc23)CC1` (some centres unmarked) [compound 826918] stands 30.3 nM; under `Cc1cccc(C)c1NC[C@@H]1CCCN1C(=O)[C@@H]1C[C@H]1CN1CCN(c2csc3cc(C(F)(F)F)ccc23)CC1` [compound 826919], 329 nM; under `O=C([C@@H]1C[C@H]1CN1CCN(c2csc3cc(C(F)(F)F)ccc23)CC1)N1CCC[C@H]1CO` [compound 826920], 67.6 nM.
Consider `CC(=O)N(C)C1CCN(C(=O)[C@@H]2C[C@H]2CN2CCN(c3csc4cc(C(F)(F)F)ccc34)CC2)C1` (some centres unmarked) [compound 826921], for which, under setting [1], the Ki is 183 nM.
For `CC(=O)N[C@@H]1CCN(C(=O)[C@@H]2C[C@H]2CN2CCN(c3csc4cc(C(F)(F)F)ccc34)CC2)C1` [compound 826922], the Ki under setting [1] is 183 nM.
As to `COC[C@H]1CCCN1C(=O)[C@@H]1C[C@H]1CN1CCN(c2csc3cc(C(F)(F)F)ccc23)CC1` [compound 826923], the Ki under setting [1] is 141 nM.
As to `CN(C)[C@H]1CCN(C(=O)[C@@H]2C[C@H]2CN2CCN(c3csc4cc(C(F)(F)F)ccc34)CC2)C1` [compound 826926], the Ki under setting [1] turned out to be 86.5 nM.
For `CC1CCC(C)N1C(=O)[C@@H]1C[C@H]1CN1CCN(c2csc3cc(C(F)(F)F)ccc23)CC1` (some centres unmarked) [compound 826928], the Ki under setting [1] was 11.2 nM.
With `C[C@H]1CC[C@H](NC(=O)CCCN2CCN(c3csc4cc(C(F)(F)F)ccc34)CC2Cc2ccccc2)CC1` (some centres unmarked) [compound 827055], the Ki under setting [2] amounted to 792 nM.
With `O=C(CCCN1CCN(c2csc3cc(C(F)(F)F)ccc23)CC1Cc1ccccc1)N1CCC(O)CC1` (centres unmarked) [compound 827063], under setting [1], the Ki turned out to be 373 nM.
Regarding `CC1CCN(C(=O)CCCN2CCN(c3csc4cc(C(F)(F)F)ccc34)CC2Cc2ccccc2)CC1` (centres unmarked) [compound 827065], the Ki under setting [1] came out at 168 nM.
With `CC1CCCN(C(=O)CCCN2CCN(c3csc4cc(C(F)(F)F)ccc34)CC2Cc2ccccc2)C1` (centres unmarked) [compound 827066], the Ki under setting [1] turned out to be 209 nM.
`O=C(CCCN1CCN(c2csc3cc(C(F)(F)F)ccc23)CC1Cc1ccccc1)N1CCC(N2CCCC2)CC1` (centres unmarked) [compound 827067]: the Ki under setting [1] was 268 nM.
`CC1(C)CCCN(C(=O)CCCN2CCN(c3csc4cc(C(F)(F)F)ccc34)CC2Cc2ccccc2)C1` (centres unmarked) [compound 827068]: under setting [1], the Ki is 197 nM.
`CCOC(=O)[C@H]1CC[C@H](NC(=O)CCCN2CCN(c3csc4cc(C(F)(F)F)ccc34)CC2CCc2ccccc2)CC1` (some centres unmarked) [compound 827071]: the Ki under setting [2] was 454 nM.
With `CN(C(=O)CCCN1CCN(c2csc3cc(C(F)(F)F)ccc23)CC1CCc1ccccc1)C1CCCCC1` (centres unmarked) [compound 827074], the Ki under setting [2] was determined as 267 nM.
As for `CN(C(=O)CCCN1CCN(c2csc3cc(C(F)(F)F)ccc23)CC1CCCc1ccccc1)C1CCCCC1` (centres unmarked) [compound 827079], under setting [2], the Ki was 126 nM.
For the compound `CCOC(=O)C1CCN(C(=O)CCCN2CCN(c3csc4cc(C(F)(F)F)ccc34)CC2CCCc2ccccc2)CC1` (centres unmarked) [compound 827082], the Ki under setting [1] worked out at 303 nM.
Same read-out and setting: to `CC1CCCCN1C(=O)CCCN1CCN(c2csc3cc(C(F)(F)F)ccc23)CC1CCCc1ccccc1` (centres unmarked) [compound 827084] belongs 266 nM.
Turning to `CCOC(=O)C1CCC(NC(=O)CCCN2CCN(c3csc4cc(F)ccc34)CC2Cc2ccccc2)CC1` (centres unmarked) [compound 827086], the Ki under setting [2] turned out to be 334 nM.
In the case of `CCC1CCC(NC(=O)CCCN2CCN(c3csc4cc(F)ccc34)CC2Cc2ccccc2)CC1` (centres unmarked) [compound 827087], under setting [2], the Ki stood at 178 nM.
Same read-out and setting: under `CC1CCCC(NC(=O)CCCN2CCN(c3csc4cc(F)ccc34)CC2Cc2ccccc2)C1` (centres unmarked) [compound 827088] stands 284 nM; under `CN(C(=O)CCCN1CCN(c2csc3cc(F)ccc23)CC1Cc1ccccc1)C1CCCCC1` (centres unmarked) [compound 827089], 307 nM; under `CCN(C(=O)CCCN1CCN(c2csc3cc(F)ccc23)CC1Cc1ccccc1)C1CCCCC1` (centres unmarked) [compound 827090], 346 nM.
`O=C(CCCN1CCN(c2csc3cc(F)ccc23)CC1Cc1ccccc1)N1CCC(O)CC1` (centres unmarked) [compound 827093]: the Ki under setting [1] was found to be 84 nM.
With `CC1CCCCN1C(=O)CCCN1CCN(c2csc3cc(F)ccc23)CC1Cc1ccccc1` (centres unmarked) [compound 827094], the Ki under setting [1] turned out to be 34.6 nM.
Still for that read-out and setting: to `CC1CCN(C(=O)CCCN2CCN(c3csc4cc(F)ccc34)CC2Cc2ccccc2)CC1` (centres unmarked) [compound 827095] belongs 37.8 nM.
As for `CC1CCCN(C(=O)CCCN2CCN(c3csc4cc(F)ccc34)CC2Cc2ccccc2)C1` (centres unmarked) [compound 827096], the Ki under setting [1] came to 44.7 nM.
On the same count and under the same terms, under `O=C(CCCN1CCN(c2csc3cc(F)ccc23)CC1Cc1ccccc1)N1CCC(N2CCCC2)CC1` (centres unmarked) [compound 827097] stands 51.5 nM.
Regarding `CC1(C)CCCN(C(=O)CCCN2CCN(c3csc4cc(F)ccc34)CC2Cc2ccccc2)C1` (centres unmarked) [compound 827098], the Ki under setting [1] amounted to 82.9 nM.
Same read-out and setting: to `CC1CC(C)CN(C(=O)CCCN2CCN(c3csc4cc(F)ccc34)CC2Cc2ccccc2)C1` (centres unmarked) [compound 827099] belongs 144 nM.
On to `O=C(CCCN1CCN(c2csc3cc(F)ccc23)CC1Cc1ccccc1)N1CCCC1` (centres unmarked) [compound 827100], for which the Ki under setting [1] is 63.5 nM.
Take `O=C(CCCN1CCN(c2csc3cc(F)ccc23)CC1Cc1ccccc1)NC1CCCC1` (centres unmarked) [compound 827101]: the Ki under setting [2] turned out to be 148 nM.
On to `O=C(CCCN1CCN(c2csc3cc(F)ccc23)CC1Cc1ccccc1)NC1CCCCC1` (centres unmarked) [compound 827102], for which the Ki under setting [2] was determined as 218 nM.
Take `CC1CCCN1C(=O)CCCN1CCN(c2csc3cc(F)ccc23)CC1Cc1ccccc1` (centres unmarked) [compound 827103]: the Ki under setting [1] came to 81.7 nM.
Still for that read-out and setting: to `CN(C)C1CCN(C(=O)CCCN2CCN(c3csc4cc(F)ccc34)CC2Cc2ccccc2)C1` (centres unmarked) [compound 827104] belongs 141 nM.
